In ChEMBL document CHEMBL1201862, “PubChem BioAssay data set” (2004):
Active and inactive are the calls of the source.

Legend:
[1] = target: T1, Probable nicotinate-nucleotide adenylyltransferase (Staphylococcus aureus (strain N315), UniProt P65502); type: functional, Staphylococcus aureus subsp. aureus N315; settings: read-out: IC50_Mean;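 as to IC50 Mean: confirmatory dose-response retesting of NadD inhibitor hits first found in an ultra-high-throughput screen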
[2] = target: T1, Probable nicotinate-nucleotide adenylyltransferase; type: functional, Staphylococcus aureus subsp. aureus N315
[3] = target: T2, Sentrin-specific protease 8 (Homo sapiens, UniProt Q96LD8); type: functional
T2 sequence (Q96LD8 whole entry): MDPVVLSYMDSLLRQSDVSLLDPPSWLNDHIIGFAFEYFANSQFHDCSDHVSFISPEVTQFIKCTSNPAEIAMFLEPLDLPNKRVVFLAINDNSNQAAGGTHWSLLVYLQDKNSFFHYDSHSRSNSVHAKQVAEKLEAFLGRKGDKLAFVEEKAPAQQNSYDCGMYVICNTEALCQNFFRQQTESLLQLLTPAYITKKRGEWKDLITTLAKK

Protein RecA = target: T3, Protein RecA (Mycobacterium tuberculosis, UniProt P9WHJ3); assay: Fluorescence Cell-Free Homogeneous Dose Retest to Identify Inhibitors of RecA-Intein Splicing Activity. [Related pubchem assays (depositor defined):AID2097, AID2223, AID489010, AID492950]; type: functional
T3 sequence (P9WHJ3 whole entry): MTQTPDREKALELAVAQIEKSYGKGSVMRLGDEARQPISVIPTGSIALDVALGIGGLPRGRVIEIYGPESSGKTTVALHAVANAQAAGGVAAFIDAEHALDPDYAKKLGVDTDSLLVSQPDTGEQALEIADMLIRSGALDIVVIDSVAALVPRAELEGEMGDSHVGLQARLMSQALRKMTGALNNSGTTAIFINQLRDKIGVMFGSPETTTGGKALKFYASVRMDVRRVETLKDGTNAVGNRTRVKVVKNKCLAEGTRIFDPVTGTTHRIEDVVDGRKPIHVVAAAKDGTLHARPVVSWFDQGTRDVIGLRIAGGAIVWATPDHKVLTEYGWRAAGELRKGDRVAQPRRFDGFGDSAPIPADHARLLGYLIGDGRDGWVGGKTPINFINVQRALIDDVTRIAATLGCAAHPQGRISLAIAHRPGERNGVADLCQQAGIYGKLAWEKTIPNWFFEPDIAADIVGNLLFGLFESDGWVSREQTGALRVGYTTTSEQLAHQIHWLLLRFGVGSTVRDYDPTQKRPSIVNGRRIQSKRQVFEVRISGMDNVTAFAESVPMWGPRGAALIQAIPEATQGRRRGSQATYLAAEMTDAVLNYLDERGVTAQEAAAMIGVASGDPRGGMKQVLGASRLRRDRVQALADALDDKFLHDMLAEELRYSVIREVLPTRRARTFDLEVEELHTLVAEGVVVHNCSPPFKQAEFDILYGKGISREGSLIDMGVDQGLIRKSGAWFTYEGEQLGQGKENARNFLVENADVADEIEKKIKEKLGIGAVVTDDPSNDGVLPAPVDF

[4] = target: T4, Replicative DNA helicase DnaB (Mycobacterium tuberculosis, UniProt P9WMR3); assay: DnaB intein splicing inhibitors, dose response, biochemical, cell-free fluorescence (AID 449749); type: functional
T4 sequence (P9WMR3 whole entry): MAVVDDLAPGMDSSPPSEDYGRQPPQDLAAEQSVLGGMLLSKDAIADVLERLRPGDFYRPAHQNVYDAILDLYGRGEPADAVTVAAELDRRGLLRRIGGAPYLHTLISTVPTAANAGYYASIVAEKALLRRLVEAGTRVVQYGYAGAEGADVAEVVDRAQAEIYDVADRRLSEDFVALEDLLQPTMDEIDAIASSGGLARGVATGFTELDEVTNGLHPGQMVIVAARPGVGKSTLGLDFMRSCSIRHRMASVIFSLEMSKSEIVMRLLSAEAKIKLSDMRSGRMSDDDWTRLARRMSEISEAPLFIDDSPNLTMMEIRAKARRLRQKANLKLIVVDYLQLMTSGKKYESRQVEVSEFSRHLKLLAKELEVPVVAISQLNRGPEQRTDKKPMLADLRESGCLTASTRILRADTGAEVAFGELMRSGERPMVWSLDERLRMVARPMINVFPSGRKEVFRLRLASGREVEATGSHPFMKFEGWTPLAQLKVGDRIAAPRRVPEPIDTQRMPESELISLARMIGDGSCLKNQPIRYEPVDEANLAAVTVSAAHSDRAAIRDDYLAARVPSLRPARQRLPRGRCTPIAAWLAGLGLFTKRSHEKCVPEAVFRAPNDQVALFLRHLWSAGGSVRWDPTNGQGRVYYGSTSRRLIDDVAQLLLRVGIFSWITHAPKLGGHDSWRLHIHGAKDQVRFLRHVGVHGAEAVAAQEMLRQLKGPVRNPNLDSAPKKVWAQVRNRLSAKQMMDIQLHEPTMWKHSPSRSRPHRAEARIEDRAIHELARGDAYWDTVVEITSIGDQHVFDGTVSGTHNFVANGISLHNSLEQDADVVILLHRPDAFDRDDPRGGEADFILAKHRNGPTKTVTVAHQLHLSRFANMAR

[5] = target: T2, Sentrin-specific protease 8; type: functional; remark: listed apart in the source
[6] = target: T5, Histone-lysine N-methyltransferase NSD2 (Homo sapiens, UniProt O96028); type: biochemical
T5 sequence (O96028 whole entry): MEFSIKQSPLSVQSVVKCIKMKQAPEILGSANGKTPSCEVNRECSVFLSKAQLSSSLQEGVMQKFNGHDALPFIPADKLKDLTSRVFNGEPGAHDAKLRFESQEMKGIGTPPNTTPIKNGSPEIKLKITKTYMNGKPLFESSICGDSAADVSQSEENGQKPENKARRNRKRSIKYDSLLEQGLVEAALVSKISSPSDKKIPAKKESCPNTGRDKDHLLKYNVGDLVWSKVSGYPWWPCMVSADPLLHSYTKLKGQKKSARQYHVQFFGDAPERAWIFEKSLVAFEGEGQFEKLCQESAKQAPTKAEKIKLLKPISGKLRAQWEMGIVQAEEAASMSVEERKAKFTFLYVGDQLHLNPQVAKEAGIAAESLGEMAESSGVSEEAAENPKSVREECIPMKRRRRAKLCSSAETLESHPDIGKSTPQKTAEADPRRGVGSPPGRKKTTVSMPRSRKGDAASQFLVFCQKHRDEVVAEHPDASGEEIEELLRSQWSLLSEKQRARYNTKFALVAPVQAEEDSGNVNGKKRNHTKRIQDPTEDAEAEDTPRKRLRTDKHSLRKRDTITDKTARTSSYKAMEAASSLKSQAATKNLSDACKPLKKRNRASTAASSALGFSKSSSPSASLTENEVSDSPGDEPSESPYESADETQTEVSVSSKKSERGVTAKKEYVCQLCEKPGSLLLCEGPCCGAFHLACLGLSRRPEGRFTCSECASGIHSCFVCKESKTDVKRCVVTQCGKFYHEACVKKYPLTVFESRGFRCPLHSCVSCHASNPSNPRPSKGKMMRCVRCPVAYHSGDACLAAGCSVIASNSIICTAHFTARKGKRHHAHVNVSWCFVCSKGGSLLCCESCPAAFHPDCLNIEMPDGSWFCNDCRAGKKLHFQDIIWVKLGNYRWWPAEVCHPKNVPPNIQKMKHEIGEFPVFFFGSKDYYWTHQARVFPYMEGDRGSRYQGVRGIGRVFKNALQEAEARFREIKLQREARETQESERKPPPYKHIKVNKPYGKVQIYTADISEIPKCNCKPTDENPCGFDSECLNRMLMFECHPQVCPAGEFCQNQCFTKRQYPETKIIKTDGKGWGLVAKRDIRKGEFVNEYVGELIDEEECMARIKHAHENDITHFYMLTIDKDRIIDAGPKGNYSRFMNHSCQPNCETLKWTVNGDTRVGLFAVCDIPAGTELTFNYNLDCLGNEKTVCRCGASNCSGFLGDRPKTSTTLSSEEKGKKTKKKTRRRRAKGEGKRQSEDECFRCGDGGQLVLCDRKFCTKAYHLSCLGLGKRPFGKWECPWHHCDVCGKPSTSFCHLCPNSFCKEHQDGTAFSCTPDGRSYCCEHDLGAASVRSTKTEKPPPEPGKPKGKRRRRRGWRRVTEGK

[7] = Luminescence Cell-Based Dose Response HTS to Identify Inhibitors of 5'UTR Stem-Loop Driven Prion Protein mRNA Translation in H4 Neuroglioblastoma Cells. [Related pubchem assays: 1827 (Project Summary), 1813 (Primary HTS)]; type: functional
[8] = luciferase reporter signal suppression in cells – H4 neuroglioma cells, luminescence, dose response (AID 1990); type: functional, cell-based
[9] = alpha-synuclein stem-loop luciferase translation blockers – H4 neuroglioma cells, luminescence, confirmation (AID 1988); type: functional, cell-based
[10] = fluconazole-exposed Candida albicans growth modulators – fluorescence, retest, confirmation (AID 2467); type: functional, cell-based
Nonstructural protein 1 = Nonstructural protein 1 (Influenza A virus, UniProt Q194T2); type: functional, Influenza A virus (A/California/07/2009(H1N1))
[11] = NIH-3T3 fibroblast cytotoxicity, dose response, cytotoxicity control, cell-based, fluorescence, Alamar Blue, secondary assay (AID 2327); type: functional;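 also: NIH-3T3 mouse fibroblasts cultured with fluconazole at 8 µg/mL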
cells = type: functional, cell-based; settings: HEK-CNG
Galanin receptor type 3 = target: T6, Galanin receptor type 3 (Homo sapiens, UniProt O60755); assay: Fluorescence-based cell-based primary high throughput dose response assay to identify antagonists of the Galanin Receptor 3 (GalR3).; type: functional
T6 sequence (O60755 whole entry): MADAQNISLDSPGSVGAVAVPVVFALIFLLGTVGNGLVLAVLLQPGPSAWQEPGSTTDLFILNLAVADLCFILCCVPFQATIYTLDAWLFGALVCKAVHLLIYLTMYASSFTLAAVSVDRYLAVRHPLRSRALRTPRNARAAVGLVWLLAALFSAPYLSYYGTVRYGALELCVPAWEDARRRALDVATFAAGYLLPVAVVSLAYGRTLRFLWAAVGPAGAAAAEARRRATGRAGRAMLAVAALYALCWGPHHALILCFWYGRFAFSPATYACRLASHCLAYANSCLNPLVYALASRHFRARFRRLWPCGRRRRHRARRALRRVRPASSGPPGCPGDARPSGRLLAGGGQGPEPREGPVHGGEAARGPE

[12] = blockers of HIV-1 ZM109 envelope-driven cell-cell fusion – HeLa effector, CEM target cells, luciferase, cherry-pick, dose response (AID 652058); type: functional, cell-based;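 also: luciferase signal from HIV-1 Env mediated cell-cell fusion of effector and target cells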
[13] = HIV-1 AD8 envelope cell-cell fusion blockers – cherry-pick, dose response (AID 652062); type: functional, cell-based;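 also: luciferase signal from cell-cell fusion driven by HIV-1 clade B AD8 Env; potency is for inhibitors of fusion seen as a drop in luminescence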
[14] = blockers of HIV-1 envelope-mediated cell-cell fusion – cherry-pick, dose response (AID 652057); type: functional, cell-based
[15] = off-target signal loss in HeLa-CEM21 co-culture – HeLa F-luc CTL cells, cherry-picked, counter-screen for HIV-1 Env fusion inhibitor project, dose response (AID 652040); type: functional, cell-based;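 also: potency for signal decrease marking cytotoxic or nonspecific inhibition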
[16] = target: T7, Zinc finger protein mex-5 (Caenorhabditis elegans, UniProt Q9XUB2); assay: potency of MEX-5 RNA-binding blockers – biochemical, C. elegans, fluorescence polarization, dose response (AID 1960)
T7 sequence (Q9XUB2 whole entry): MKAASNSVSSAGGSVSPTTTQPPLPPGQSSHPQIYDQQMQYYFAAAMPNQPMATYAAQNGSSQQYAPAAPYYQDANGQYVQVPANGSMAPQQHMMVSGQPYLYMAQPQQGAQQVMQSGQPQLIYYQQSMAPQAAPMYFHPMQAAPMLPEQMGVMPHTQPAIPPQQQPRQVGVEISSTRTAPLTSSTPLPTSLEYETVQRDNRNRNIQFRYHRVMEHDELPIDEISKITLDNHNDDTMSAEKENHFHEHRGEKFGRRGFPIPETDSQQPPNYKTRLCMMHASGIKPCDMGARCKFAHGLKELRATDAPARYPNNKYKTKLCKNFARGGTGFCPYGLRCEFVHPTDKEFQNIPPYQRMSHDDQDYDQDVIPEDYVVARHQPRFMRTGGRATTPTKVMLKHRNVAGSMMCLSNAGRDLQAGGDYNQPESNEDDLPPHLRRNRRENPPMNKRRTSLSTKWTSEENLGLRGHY

[17] = target: T8, RNA-binding protein pos-1 (Caenorhabditis elegans, UniProt G5EF15); assay: disruptors of C. elegans POS-1 RNA interaction – biochemical, fluorescence polarization, dose response (AID 1964);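 also: purified POS-1 fused to maltose binding protein made in E. coli; potency of compounds blocking POS-1 binding to fluorescent RNA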
T8 sequence (G5EF15 whole entry): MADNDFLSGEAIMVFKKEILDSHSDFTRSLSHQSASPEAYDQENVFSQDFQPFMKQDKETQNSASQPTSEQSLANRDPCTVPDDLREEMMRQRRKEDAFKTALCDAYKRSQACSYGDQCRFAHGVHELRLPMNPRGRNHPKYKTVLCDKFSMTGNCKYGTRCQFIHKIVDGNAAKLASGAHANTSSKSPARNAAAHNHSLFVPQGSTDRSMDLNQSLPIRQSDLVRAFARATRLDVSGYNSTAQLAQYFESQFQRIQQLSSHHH

T1 sequence (P65502 whole entry): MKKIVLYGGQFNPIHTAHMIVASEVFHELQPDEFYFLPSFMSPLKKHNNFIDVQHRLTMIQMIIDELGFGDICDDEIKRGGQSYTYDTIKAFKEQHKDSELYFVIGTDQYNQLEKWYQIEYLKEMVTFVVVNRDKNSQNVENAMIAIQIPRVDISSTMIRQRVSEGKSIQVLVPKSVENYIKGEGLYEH
Sequence of Nonstructural protein 1 (Q194T2 whole entry): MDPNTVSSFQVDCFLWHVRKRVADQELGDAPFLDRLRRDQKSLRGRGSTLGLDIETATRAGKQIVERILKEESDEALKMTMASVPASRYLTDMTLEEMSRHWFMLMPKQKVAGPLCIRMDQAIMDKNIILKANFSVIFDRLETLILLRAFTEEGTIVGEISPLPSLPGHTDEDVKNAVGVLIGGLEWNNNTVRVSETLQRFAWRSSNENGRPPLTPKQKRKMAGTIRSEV

For `CC1=NN(c2ccc(C)c(C)c2)C(=O)C1C(c1cccc(O)c1)C1C(=O)N(c2ccc(C)c(C)c2)N=C1C` (stereo not given), the IC50 [1] was 15.1 µM (active), the IC50 [2] was 6.63 µM (active) and the IC50 [3] was 14.7 µM (active). For the same compound, the EC50 (Protein RecA) was 0.468 µM (active), the AC50 [4] was 1.14 µM (active) and the IC50 [5] was 7.94 µM (active).
In the case of `CCOc1ccccc1NC(=O)CSc1nc(O)c2c(C(F)(F)F)cc(-c3cccs3)nc2n1`, the AC50 [6] is reported as > 20 µM (inactive).
With `CC[n+]1c(/C=C/C=C/c2ccc(N(C)C)cc2)sc2ccccc21.[O-][Cl+3]([O-])([O-])[O-]` the EC50 [7] was 11.2 µM (active), the EC50 [8] was 43.6 µM (active) and the AC50 [6] was 7.84 µM (active). For the same compound, the EC50 [9] was 0.666 µM (active), the EC50 [10] was < 0.03 µM (active) and the IC50 (Nonstructural protein 1) was 5.05 µM (active). For the same compound, the EC50 [11] was 82.9 µM (active), the EC50 (cells) was > 29.9 µM (inactive) and the IC50 (Galanin receptor type 3) was > 29.9 µM (inactive).
With `C=CCN(Cc1ccc(OC)c(OC)c1)C(=O)c1cc2cc(F)ccc2[nH]1` the AC50 [12] was 9.08 µM (active), the AC50 [13] was 10.5 µM (active) and the AC50 [14] was 6.22 µM (active). For the same compound, the AC50 [15] was 11.8 µM (active).
In the case of `O=C(c1ccc(S(=O)(=O)Nc2ccc(F)cc2)cc1)N1CCN(C(=O)c2ccco2)CC1`, the AC50 [12] is reported as 10.4 µM (active), the AC50 [13] is reported as 2.86 µM (active) and the AC50 [15] is reported as 24.4 µM (active).
With `CCCC1Nc2ccc(C(=O)O)cc2C2C=CCC12` (stereo not given) the AC50 [6] was 16.8 µM (active), the EC50 [16] was 14.5 µM (active) and the EC50 [17] was 23.8 µM (active).
In the case of `CCCN(CC(=O)Nc1ccccc1OC)C(=O)c1cccc(S(=O)(=O)NCc2ccccc2)c1`, the AC50 [12] is reported as 10.3 µM (active), the AC50 [13] is reported as 39.2 µM (active) and the AC50 [14] is reported as 4.37 µM (active). The AC50 [15] was 5.73 µM (active).
